Here are results for 97 compounds from ChEMBL document CHEMBL3507680, “University of Dundee, Gates Library screen for HepG2 cell viability”.

The structures appear in SMILES notation.

A short description of the series: Human HepG2 cell viability assay in 384 well format. The series is classed as toxicity, cell-based. Details: dose 125 nL, time 70.5 hour; cytotoxicity at 70.5 h: concentration not given beside the values. The note with it: HepG2 cells, read-out: Inhibition.

As to `CC(C)N1CCc2onc(Cn3cccn3)c2C1`, the cytotoxicity at 70.5 h is -5.3%.

For the compound `CCOC[C@@H]1CC[C@H]2[C@H](CCN2S(=O)(=O)Cc2ccccc2)O1`, the cytotoxicity at 70.5 h amounted to 10.7%. Then `COC[C@@H]1CC[C@H]2[C@H](CCN2S(=O)(=O)Cc2ccccc2)O1`, with -1.62%; and `CCOC[C@H]1CC[C@H]2[C@H](CCN2S(=O)(=O)Cc2ccccc2)O1`, with -1.8%. On to `CCN(CC)[C@H]1COC[C@@H]2CN(Cc3cnn(C)c3)C[C@@H]21`, for which the cytotoxicity at 70.5 h was -3.13%. Then `CCS(=O)(=O)NCC1OCCc2cn(CC3CCOCC3)nc21` (configuration not stated), with 11.8%. Then `Cc1cnc(N2CCC3(CC2)CC(NC(=O)C(C)C)CO3)nc1` (configuration not stated), with 11.3%; and `CS(=O)(=O)NCC1OCCc2cn(CC3CC3)nc21` (configuration not stated), with 13%; and `CN(C)S(=O)(=O)NCC1OCCc2cn(CC3CCOCC3)nc21` (configuration not stated), with 13.8%. With `CN(C)S(=O)(=O)N1CC[C@]2(C[C@@H](OCC3CC3)CO2)C1`, the cytotoxicity at 70.5 h is 0.733%. `CN(C)Cc1cc(=O)n2c(n1)CN(CC1CC1)CCC2`: the cytotoxicity at 70.5 h is -6.12%. Consider `CCn1cc2c(n1)C(COC)CN(Cc1ccoc1)C2` (configuration not stated), for which the cytotoxicity at 70.5 h was -15.1%. For `CCS(=O)(=O)N1CCOC2(COCCN(c3nccs3)C2)C1` (configuration not stated), the cytotoxicity at 70.5 h was -8.91%. Then `Fc1cccc(N2CCOC3(CCCN(c4cnccn4)C3)C2)c1` (configuration not stated), with -7.3%. Then `CCS(=O)(=O)N1Cc2ccnn2CC(c2nc(C)no2)C1` (configuration not stated), with -9.51%; and `O=S(=O)(C1CC1)N1CC[C@]2(C[C@@H](OCC3CCOCC3)CO2)C1`, with -9.4%; and `CN1C[C@@H]2COC[C@]2(C(=O)NCc2cccs2)C1`, with 13.4%.

Regarding `Cc1ccsc1C(=O)N1CCCn2nnc(Cn3cccn3)c2C1`, the cytotoxicity at 70.5 h was determined as 9.85%.

As for `O=C(c1ccno1)N1CCC2(CC1)C(=O)Nc1ccccc12`, the cytotoxicity at 70.5 h was -6.37%.

On to `c1cncc(COCC2CN(Cc3ccsc3)Cc3ccnn3C2)c1` (configuration not stated), for which the cytotoxicity at 70.5 h was -4.42%. The figure for `CCc1nn(-c2cc(Oc3cc(C)ccc3C)ncn2)c(N)c1C#N` is -1.76%; for `O=C(Cn1nc(Br)nc1Br)N1CCCCC1` it is -3.74%. The figure for `CCCc1ccc(N2CCN(Cc3nc4ccccc4n3C)CC2)cc1` is 19.9%; for `Cc1cnc(N2C(=O)CSC2c2ccc(F)cc2)s1` (configuration not stated) it is -5.25%; for `Cc1cnc(N2C(=O)CSC2c2ccc(N(C)C)cc2)s1` (configuration not stated) it is -8.63%.

As for `COc1cc2ncn(CC(=O)NCCCN(C)C)c(=O)c2cc1OC`, the cytotoxicity at 70.5 h is -6.49%. As for `CC(=O)c1cn(CCC(=O)N[C@H](C(=O)O)C(C)C)c2ccccc12`, the cytotoxicity at 70.5 h was -4%. The figure for `COc1cccc(-c2nc(C)c(C(=O)N[C@@H](C)C(=O)O)s2)c1` is 4.53%; for `COc1cc2nc(C)n(CC(=O)NCCCN(C)C)c(=O)c2cc1OC` it is 6.18%; for `O=C(NCCN1CCNCC1)c1c(O)c2ccccc2[nH]c1=O` it is 36.3%.

For the compound `CC(C)Cc1nc(OCC(=O)O)c(C#N)c2c1CCC2`, the cytotoxicity at 70.5 h turned out to be 3.53%.

Consider `CC(C)Cc1nc(OCC(N)=O)c(C#N)c2c1CCC2`, for which the cytotoxicity at 70.5 h was determined as 14.5%. The figure for `CN(C)CCNC(=O)CNC(=O)N1CCc2c([nH]c3ccc(Cl)cc23)C1` is 45.2%; for `CSCC[C@H](NC(=O)Cn1ccc2c(Cl)cccc21)C(=O)O` it is -11.9%; for `O=C1N(c2cccc(Cl)c2)Cc2nc(=O)n(Cc3cccc(F)c3)n21` it is 0.196%. Then `O=C(Cn1nc2c(cc1=O)CCCC2)N[C@@H](Cc1ccccc1)C(=O)O`, with 6.84%; and `Cc1n[nH]c2c1C(c1ccc(O)c(Cl)c1)SCC(=O)N2` (configuration not stated), with 1.38%; and `O=C1CC(c2ccncc2)c2c(c(C(=O)O)cn2-c2ccc(F)cc2)N1` (configuration not stated), with -6.2%. On to `CC1=Nc2c(c(=O)[nH]n2C2CCCC2)C(c2cccc(O)c2)S1` (configuration not stated), for which the cytotoxicity at 70.5 h was determined as 3.38%.

Consider `COc1cccc2c1ccn2CCNC(=O)C(C)C`, for which the cytotoxicity at 70.5 h is -6.5%. Regarding `O=C(CCc1nc2cccnc2[nH]1)NCc1ccc2c(c1)OCO2`, the cytotoxicity at 70.5 h was -9.32%.

Regarding `O=C1CSC(c2cccs2)c2cnn(C3CCCC3)c2N1` (configuration not stated), the cytotoxicity at 70.5 h was -5.69%. Regarding `Cn1cccc1CNC(=O)CCCc1nnc2ccccn12`, the cytotoxicity at 70.5 h was -3.22%. The figure for `COC(=O)CC(c1cnn(C)c1)c1oc(C)cc(=O)c1O` (configuration not stated) is 7.5%. Then `CNC(=O)c1cc(S(=O)(=O)C(C)C)cs1`, with 1.49%. Regarding `COc1ccc2c(c1)OC1(CCN(Cc3ccc(F)cc3)CC1)CC2=O`, the cytotoxicity at 70.5 h was determined as 1.23%. Consider `CC1(C)OCC(CNC(=O)c2cnn(-c3cc(Cl)ccc3Cl)c2N)O1` (configuration not stated), for which the cytotoxicity at 70.5 h was -5.2%.

Take `CC(=O)N1N=C(c2ccccc2)OC1C(=O)NCCc1cccc(Cl)c1` (configuration not stated): the cytotoxicity at 70.5 h was -19.7%. As for `O=C(c1ccccn1)N1CCN(c2ccc(-c3cccnc3)nn2)CC1`, the cytotoxicity at 70.5 h was -11.4%. The figure for `CC(C)(C)n1cc(C(=O)NCCCn2ccnc2)c2cccnc21` is -4.7%; for `Cc1ccc(C)c(C(NC(=O)C(C)(C)C)c2cccnc2)c1` (configuration not stated) it is -4.24%. Take `Cc1ccc(C)c(NC(=O)Nc2c[nH]c(=O)[nH]c2=O)c1`: the cytotoxicity at 70.5 h was -27.8%. On to `O=C(Nc1ccc(F)cc1F)Nc1c[nH]c(=O)[nH]c1=O`, for which the cytotoxicity at 70.5 h was -14.5%. The figure for `O=C(NCCN1CCOCC1)c1ccc(-n2ccc3ccccc32)s1` is -8.71%; for `COc1ccc(C2OC(COc3ccccc3Br)=NN2C(C)=O)cc1` (configuration not stated) it is -6.79%. The figure for `COc1ccc2c(c1)CC(NC(=O)NCc1cccs1)CO2` (configuration not stated) is -14.1%.

As for `COc1ccc(OC)c(CN2CCCCCC2c2cccs2)c1` (configuration not stated), the cytotoxicity at 70.5 h is 31.6%. Consider `O=C(CSc1nc2c(cnn2CCO)c(=O)[nH]1)N1CCCCCC1`, for which the cytotoxicity at 70.5 h turned out to be 13.2%. Consider `CN1CCc2cc(C(CNS(=O)(=O)c3cccs3)N3CCCC3)ccc21` (configuration not stated), for which the cytotoxicity at 70.5 h turned out to be 30.7%.

Consider `CC(C)c1nn(CC(=O)N2CCCCC2)c(=O)c2c1cnn2C(C)(C)C`, for which the cytotoxicity at 70.5 h is -10.1%. The figure for `CCCc1cc(=O)[nH]c2nnc(SCC(=O)NCc3ccc(C)cc3)n12` is -6.16%; for `Cc1cccc(NC(=O)Cn2ncc(SCC(N)=O)c(Cl)c2=O)c1C` it is -13.7%; for `O=C(c1cn(-c2cc(N3CCOCC3)ncn2)cn1)N1CCSCC1` it is -2%. As to `O=C(c1cn(-c2cc(N3CCSCC3)ncn2)cn1)N1CCSCC1`, the cytotoxicity at 70.5 h was -1.64%.

With `O=S(=O)(NCC1CCN(c2ccccn2)CC1)c1ccccc1F`, the cytotoxicity at 70.5 h was determined as 33.3%. Take `O=C(NCC1CCN(Cc2ccsc2)CC1)NC1CC1`: the cytotoxicity at 70.5 h was 1.34%.

In the case of `CN(C)C(CNS(=O)(=O)c1ccc(F)cc1F)c1cccn1C` (configuration not stated), the cytotoxicity at 70.5 h was -13.1%. Regarding `O=C(NCC(Cc1cccc(F)c1)N1CCCC1=O)c1cnccn1` (configuration not stated), the cytotoxicity at 70.5 h is 0.835%. On to `CS(=O)(=O)N1CCC(C(=O)N2CCC3(CC2)OCCCO3)CC1`, for which the cytotoxicity at 70.5 h was 54.6%.

With `Cc1nc(NCc2nccn2C)cc(C2COCCN2)n1` (configuration not stated), the cytotoxicity at 70.5 h was -11.1%.

For the compound `COc1cc([C@@H]2N[C@H](c3nccs3)Cc3ccsc32)cc(OC)c1OC`, the cytotoxicity at 70.5 h was -0.55%.

Take `Cc1nc(C(Cc2ccsc2)NC(=O)CN2CCOCC2)sc1C` (configuration not stated): the cytotoxicity at 70.5 h was -4.95%.

Consider `Cc1nc(C(Cc2ccsc2)NC(=O)CCN2CCOCC2)sc1C` (configuration not stated), for which the cytotoxicity at 70.5 h was -7.23%. As for `CCCC(=O)N(C)Cc1nc(N2CCCC2)ncc1-c1ccncc1`, the cytotoxicity at 70.5 h is -11%.

In the case of `CC(C)NC(=O)[C@@H]1CC[C@@H]2[C@@H](CCN2Cc2cn(C)c3ccccc23)O1`, the cytotoxicity at 70.5 h was -2.33%.

Take `CN1CCc2onc(Cn3cccc3)c2C1`: the cytotoxicity at 70.5 h was -0.902%. Consider `CC(C)N1CCc2onc(Cn3cccc3)c2C1`, for which the cytotoxicity at 70.5 h was -2.22%. With `c1cnc(N2CCO[C@H]3CN(Cc4cc[nH]n4)C[C@H]32)cn1`, the cytotoxicity at 70.5 h was -7.22%.

On to `CC(C)NC(=O)C1CCC2(CCN(Cc3cnn(C)c3)CC2)C1` (configuration not stated), for which the cytotoxicity at 70.5 h is -8.81%.

Consider `c1cnc(N2CCO[C@H]3CN(Cc4c[nH]cn4)C[C@H]32)cn1`, for which the cytotoxicity at 70.5 h was -5.79%. In the case of `CCS(=O)(=O)N1CCC2(CC1)COC(COc1cccnc1)C2` (configuration not stated), the cytotoxicity at 70.5 h was -10.2%. Then `CC(C)NC(=O)C1CCC2(CCN(Cc3cnn(C)c3)CC2)CO1` (configuration not stated), with -17%; and `CN(C)S(=O)(=O)N1CC[C@H]2OCC[C@@]2(COc2cccnc2)C1`, with -12.5%. Then `Cc1ncsc1CN1C[C@H](OCC(C)C)[C@H]2OCCC[C@H]21`, with -0.162%. Then `c1csc(CN2CCC3(CCCN(c4nncs4)C3)C2)n1` (configuration not stated), with -1.22%; and `CN(C)Cc1n[nH]c2c1CCN(Cc1cccs1)C2`, with -4.47%; and `Cc1ccc(CN2CCc3c(CN(C)C)n[nH]c3C2)s1`, with -0.649%. In the case of `COc1ccc(CN2CCOC3(CCCN(c4cnccn4)C3)C2)cc1` (configuration not stated), the cytotoxicity at 70.5 h is -4.22%. For the compound `Cn1cc(C[C@H]2[C@H](N3CCOCC3)CCN2C2CCOCC2)cn1`, the cytotoxicity at 70.5 h is -13.7%. On to `CNC(=O)c1cc2c(nc1NCC(C)C)CCN(CCOC)CC2`, for which the cytotoxicity at 70.5 h was determined as 4.78%.

Take `CNC(=O)c1cc2c(nc1NCC(C)C)CCN(C)CC2`: the cytotoxicity at 70.5 h worked out at 0.255%. Regarding `CNC(=O)c1cc2c(nc1NCC(C)C)CCN(CC1CC1)CC2`, the cytotoxicity at 70.5 h is -9.46%.

`CN(C)[C@@H]1CN(Cc2cnn(C)c2)[C@@H]2COC[C@H]12`: the cytotoxicity at 70.5 h came out at 7.8%. For `CN(C)CCNC(=O)[C@H]1C[C@H]2CN(c3ncccn3)C[C@H]2N1C`, the cytotoxicity at 70.5 h is -2.47%. Then `CN1CCN([C@@H]2CCN(C3CCOCC3)[C@H]2Cc2cnn(C)c2)CC1`, with -6.56%; and `CCC(CN1CCCCC1)NC(=O)C1(c2cccc(F)c2)CC1` (configuration not stated), with -8.99%; and `COc1ccc(CCNC(=O)C2CCC(Cn3cnnn3)CC2)cc1` (configuration not stated), with -2.47%.
